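Values below derive from 48-hour exposures of cells grown in 96-well plates, with endpoints linearly interpolated between the two concentrations bracketing the appropriate inhibition level. Definition used: TGI = concentration required for complete inhibition of growth.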
Assays:
Test in all cases: inhibition of tumour cell growth, NCI panel, 48 h
[1] = tested on: 786-0 renal
[2] = tested on: CAKI-1 renal
[3] = tested on: CCRF-CEM leukemia
[4] = tested on: COLO 205 colon
[5] = tested on: DLD-1 colon
[6] = tested on: DMS 114 small cell lung
[7] = tested on: DMS 273 small cell lung
[8] = tested on: HCC-2998 colon
[9] = tested on: HCT-116 colon
[10] = tested on: HOP-62 NSCLC
[11] = tested on: HOP-92 NSCLC
[12] = tested on: IGROV1 ovarian
[13] = tested on: K-562 leukemia
[14] = tested on: LXFL 529 NSCLC
[15] = tested on: M14 melanoma
[16] = tested on: M19-MEL melanoma
[17] = tested on: MALME-3M melanoma
[18] = tested on: MOLT-4 leukemia
[19] = tested on: NCI-H226 lung
[20] = tested on: NCI-H23 lung
[21] = tested on: NCI-H522 lung
[22] = tested on: OVCAR-4 ovarian
[23] = tested on: RPMI-8226 leukemia
[24] = tested on: SF-268 CNS
[25] = tested on: SF-539 CNS
[26] = tested on: SK-MEL-2 melanoma
[27] = tested on: SK-MEL-28 melanoma
[28] = tested on: SK-OV-3 ovarian
[29] = tested on: SNB-75 CNS
[30] = tested on: SNB-78 CNS
[31] = tested on: SR leukemia
[32] = tested on: UACC-62 melanoma
[33] = tested on: UO-31 renal
[34] = tested on: A498 renal
[35] = tested on: A549 NSCLC
[36] = tested on: ACHN renal
[37] = tested on: BT-549 breast
[38] = tested on: DU-145 prostate
[39] = tested on: EKVX NSCLC
[40] = tested on: HCT-15 colon
[41] = tested on: HL-60(TB) leukemia
[42] = tested on: HS 578T breast
[43] = tested on: HT29 colon
[44] = tested on: KM12 colon
[45] = tested on: LOX IMVI melanoma
[46] = tested on: MCF7 breast
[47] = tested on: MDA-MB-231 breast
[48] = tested on: MDA-MB-435
[49] = tested on: MDA-N
[50] = tested on: NCI-H460 lung
[51] = tested on: NCI/ADR-RES ovarian
[52] = tested on: OVCAR-3 ovarian
[53] = tested on: OVCAR-5 ovarian
[54] = tested on: OVCAR-8 ovarian
[55] = tested on: PC-3 prostate
[56] = tested on: RXF 393 renal
[57] = tested on: SF-295 CNS
[58] = tested on: SK-MEL-5 melanoma
[59] = tested on: SN12C renal
[60] = tested on: SNB-19 CNS
[61] = tested on: SW-620 colon
[62] = tested on: T-47D breast
[63] = tested on: TK-10 renal
[64] = tested on: U251 CNS
[65] = tested on: UACC-257 melanoma

Measured: TGI

Cc1c2cc(Cl)ccc2n2c(=O)c3ccccc3[nH]c(=O)c12
> 100 µM: [1] | [2] | [3] | [4] | [5] | [6] | [7] | [8] | [9] | [10] | [11] | [12] | [13] | [14] | [15] | [16] | [17] | [18] | [19] | [20] | [21] | [22] | [23] | [24] | [25] | [26] | [27] | [28] | [29] | [30] | [31] | [32] | [33]

COc1c2cc([N+](=O)[O-])cc1CNC(=O)CN1CCOCCOCCN(CCOCCOCC1)CC(=O)NC2
not listed: [5] | [6] | [7] | [14] | [16] | [25] | [30] | [31]
> 100 µM: all other assays above
